Laboratory results reported in US10695337B2, “Piperidin-4-yl azetidine derivatives as JAK1 inhibitors” (Incyte Corporation, priority 2010, dated 2020).

target: human JAK1 (a.a. 837-1142); experiment: In vitro JAK kinase assay (HTRF, phosphorylation of a biotinylated peptide), JAK1; type: biochemical; details: measured at 1 mM ATP; JAK2 IC50 / JAK1 IC50
Experimental: Compounds herein were tested for inhibitory activity of JAK targets according to the following in vitro assay described in Park et al., Analytical Biochemistry 1999, 269, 94-104. The catalytic domains of human JAK1 (a.a. 837-1142), Jak2 (a.a. 828-1132) and Jak3 (a.a. 781-1124) with an N-terminal His tag were expressed using baculovirus in insect cells and purified. The catalytic activity of JAK1, JAK2 or JAK3 was assayed by measuring the phosphorylation of a biotinylated peptide. The phosphorylated peptide was detected by homogenous time resolved fluorescence (HTRF). […] Reactions were carried out at room temperature for 1 hr and then stopped with 20 μL 45 mM EDTA, 300 nM SA-APC, 6 nM Eu-Py20 in assay buffer (Perkin Elmer, Boston, Mass.). Binding to the Europium labeled antibody took place for 40 minutes and HTRF signal was measured on a Fusion plate reader (Perkin Elmer, Boston, Mass.).

Compared with `N#CCC1(n2cc(-c3ncnc4[nH]ccc34)cn2)CN(C2CCN(Cc3c(F)ccc(Cl)c3F)CC2)C1` [Example 228, {1-[1-(3-chloro-2,6-difluorobenzyl)piperidin-4-yl]-3-[4-(7H-pyrrolo[2,3-d]pyrimidin-4-yl)-1H-pyrazol-1-yl]azetidin-3-yl}acetonitrile], `N#CCC1(n2cc(-c3ncnc4[nH]ccc34)cn2)CN(C2CCN(C(=O)c3c(F)cccc3F)CC2)C1` [Example 44, {1-[1-(2,6-difluorobenzoyl)piperidin-4-yl]-3-[4-(7H-pyrrolo[2,3-d]pyrimidin-4-yl)-1H-pyrazol-1-yl]azetidin-3-yl}acetonitrile] is lower in “IC50 Ratio JAK2/JAK1” value: 3.9 for the first, 2.9 for the second.

Compared with `N#CCC1(n2cc(-c3c(F)cnc4[nH]ccc34)cn2)CN(C2CCN(C(=O)c3ccc(F)c(C#N)c3)CC2)C1` [Example 318, 5-[(4-{3-(cyanomethyl)-3-[4-(5-fluoro-1H-pyrrolo[2,3-b]pyridin-4-yl)-1H-pyrazol-1-yl]azetidin-1-yl}piperidin-1-yl)carbonyl]-2-fluorobenzonitrile], `N#CCC1(n2cc(-c3c(C#N)cnc4[nH]ccc34)cn2)CN(C2CCN(C(=O)c3ccc(C#N)c(F)c3)CC2)C1` [Example 334, 4-{1-[1-[1-(4-cyano-3-fluorobenzoyl)piperidin-4-yl]-3-(cyanomethyl)azetidin-3-yl]-1H-pyrazol-4-yl}-1H-pyrrolo[2,3-b]pyridine-5-carbonitrile] is lower in “IC50 Ratio JAK2/JAK1” value: 4.7 for the first, 4.3 for the second.

Going from `COc1cscc1C(=O)N1CCC(N2CC(CC#N)(n3cc(-c4ncnc5[nH]ccc45)cn3)C2)CC1` [Example 72, {1-{1-[(4-methoxy-3-thienyl)carbonyl]piperidin-4-yl}-3-[4-(7H-pyrrolo[2,3-d]pyrimidin-4-yl)-1H-pyrazol-1-yl]azetidin-3-yl} acetonitrile] to `COc1ccc(F)cc1C(=O)N1CCC(N2CC(CC#N)(n3cc(-c4ncnc5[nH]ccc45)cn3)C2)CC1` [Example 38, {1-[1-(5-fluoro-2-methoxybenzoyl)piperidin-4-yl]-3-[4-(7H-pyrrolo[2,3-d]pyrimidin-4-yl)-1H-pyrazol-1-yl]azetidin-3-yl}acetonitrile], the “IC50 Ratio JAK2/JAK1” value falls from 6.6 to 5.7.

First: COc1ncccc1NC(=O)N1CCC(N2CC(CC#N)(n3cc(-c4ncnc5[nH]ccc45)cn3)C2)CC1 [Example 204, 4-{3-(cyanomethyl)-3-[4-(7H-pyrrolo[2,3-d]pyrimidin-4-yl)-1H-pyrazol-1-yl]azetidin-1-yl}-N-(2-methoxypyridin-3-yl)piperidine-1-carboxamide]
Second: N#CCC1(n2cc(-c3ncnc4[nH]ccc34)cn2)CN(C2CCN(C(=O)Nc3cscc3Br)CC2)C1 [Example 159, N-(4-bromo-3-thienyl)-4-{3-(cyanomethyl)-3-[4-(7H-pyrrolo[2,3-d]pyrimidin-4-yl)-1H-pyrazol-1-yl]azetidin-1-yl}piperidine-1-carboxamide]
The “IC50 Ratio JAK2/JAK1” value of the first is lower: 4.0 for the first, 15.0 for the second.

Going from `N#CCC1(n2cc(-c3ncnc4[nH]ccc34)cn2)CN(C2CCN(S(=O)(=O)c3cccc(C#N)c3)CC2)C1` [Example 248, 3-[(4-{3-(cyanomethyl)-3-[4-(7H-pyrrolo[2,3-d]pyrimidin-4-yl)-1H-pyrazol-1-yl]azetidin-1-yl}piperidin-1-yl)sulfonyl]benzonitrile] to `N#CCC1(n2cc(-c3ncnc4[nH]ccc34)cn2)CN(C2CCN(S(=O)(=O)c3ccccc3C#N)CC2)C1` [Example 247, 2-[(4-{3-(cyanomethyl)-3-[4-(7H-pyrrolo[2,3-d]pyrimidin-4-yl)-1H-pyrazol-1-yl]azetidin-1-yl}piperidin-1-yl)sulfonyl]benzonitrile], the “IC50 Ratio JAK2/JAK1” value falls from 5.2 to 5.1.

Compared with `N#CCC1(n2cc(-c3c(F)cnc4[nH]ccc34)cn2)CN(C2CCN(C(=O)c3ccnc(C(F)(F)F)c3F)CC2)C1` [Example 314, (3-[4-(5-Fluoro-1H-pyrrolo[2,3-b]pyridin-4-yl)-1H-pyrazol-1-yl]-1-{1-[3-fluoro-2-(trifluoromethyl)isonicotinoyl]piperidin-4-yl}azetidin-3-yl)acetonitrile], `N#CCC1(n2cc(-c3ccnc4[nH]ccc34)cn2)CN(C2CCN(C(=O)c3cc(C(F)(F)F)ncc3Cl)CC2)C1` [Example 298, {1-{1-[5-chloro-2-(trifluoromethyl)isonicotinoyl]piperidin-4-yl}-3-[4-(1H-pyrrolo[2,3-b]pyridin-4-yl)-1H-pyrazol-1-yl]azetidin-3-yl}acetonitrile] is lower in “IC50 Ratio JAK2/JAK1” value: 11.0 for the first, 2.8 for the second.

`N#CCC1(n2cc(-c3ncnc4[nH]ccc34)cn2)CN(C2CCN(C(=O)c3cccc(OC(F)(F)F)c3)CC2)C1` [Example 21, (3-[4-(7H-pyrrolo[2,3-d]pyrimidin-4-yl)-1H-pyrazol-1-yl]-1-{1-[3-(trifluoromethoxy)benzoyl]piperidin-4-yl}azetidin-3-yl)acetonitrile] and `N#CCC1(n2cc(-c3ncnc4[nH]ccc34)cn2)CN(C2CCN(C(=O)c3cccc(C(F)(F)F)c3)CC2)C1` [Example 22, (3-[4-(7H-pyrrolo[2,3-d]pyrimidin-4-yl)-1H-pyrazol-1-yl]-1-{1-[3-(trifluoromethyl)benzoyl]piperidin-4-yl}azetidin-3-yl)acetonitrile] are the same in “IC50 Ratio JAK2/JAK1” value: 3.2 for the first, 3.2 for the second.

First: N#CCC1(n2cc(-c3ncnc4[nH]ccc34)cn2)CN(C2CCN(C(=O)c3ccccc3C#N)CC2)C1 [Example 10, 2-[(4-{3-(cyanomethyl)-3-[4-(7H-pyrrolo[2,3-d]pyrimidin-4-yl)-1H-pyrazol-1-yl]azetidin-1-yl}piperidin-1-yl)carbonyl]benzonitrile]
Second: N#CCC1(n2cc(-c3ncnc4[nH]ccc34)cn2)CN(C2CCN(C(=O)c3ccc(Cl)s3)CC2)C1 [Example 77, {1-{1-[(5-chloro-2-thienyl)carbonyl]piperidin-4-yl}-3-[4-(7H-pyrrolo[2,3-d]pyrimidin-4-yl)-1H-pyrazol-1-yl]azetidin-3-yl}acetonitrile]
The “IC50 Ratio JAK2/JAK1” value of the first is lower: 4.4 for the first, 5.5 for the second.

Going from `Cc1cc(C)c(CC(=O)N2CCC(N3CC(CC#N)(n4cc(-c5ncnc6[nH]ccc56)cn4)C3)CC2)c(C)c1` [Example 113, {1-[1-(mesitylacetyl)piperidin-4-yl]-3-[4-(7H-pyrrolo[2,3-d]pyrimidin-4-yl)-1H-pyrazol-1-yl]azetidin-3-yl} acetonitrile] to `N#CCC1(n2cc(-c3ncnc4[nH]ccc34)cn2)CN(C2CCN(C(=O)c3ccc(F)c(O)c3)CC2)C1` [Example 58, {1-[1-(4-fluoro-3-hydroxybenzoyl)piperidin-4-yl]-3-[4-(7H-pyrrolo[2,3-d]pyrimidin-4-yl)-1H-pyrazol-1-yl]azetidin-3-yl} acetonitrile], the “IC50 Ratio JAK2/JAK1” value rises from 4.2 to 5.0.

First: N#CCC1(n2cc(-c3ncnc4[nH]ccc34)cn2)CN(C2CCN(C(=O)c3ccc(-c4ccc(C#N)c(F)c4)c(F)c3)CC2)C1 [Example 119, 4′-[(4-{3-(cyanomethyl)-3-[4-(7H-pyrrolo[2,3-d]pyrimidin-4-yl)-1H-pyrazol-1-yl]azetidin-1-yl}piperidin-1-yl)carbonyl]-2′,3-difluorobiphenyl-4-carbonitrile]
Second: N#CCC1(n2cc(-c3ncnc4[nH]ccc34)cn2)CN(C2CCN(C(=O)c3ccc(-c4ccccc4)cc3)CC2)C1 [Example 114, {1-[1-(biphenyl-4-ylcarbonyl)piperidin-4-yl]-3-[4-(7H-pyrrolo[2,3-d]pyrimidin-4-yl)-1H-pyrazol-1-yl]azetidin-3-yl}acetonitrile]
The “IC50 Ratio JAK2/JAK1” value of the first is higher: 14.0 for the first, 1.5 for the second.

Compared with `N#CCC1(n2cc(-c3ncnc4[nH]ccc34)cn2)CN(C2CCN(C(=O)Nc3nc4ccccc4s3)CC2)C1` [Example 193, N-1,3-benzothiazol-2-yl-4-{3-(cyanomethyl)-3-[4-(7H-pyrrolo[2,3-d]pyrimidin-4-yl)-1H-pyrazol-1-yl]azetidin-1-yl}piperidine-1-carboxamide], `N#CCC1(n2cc(-c3ncnc4[nH]ccc34)cn2)CN(C2CCN(C(=O)c3ccc(-c4nc5ccccc5o4)cc3)CC2)C1` [Example 136, {1-{1-[4-(1,3-benzoxazol-2-yl)benzoyl]piperidin-4-yl}-3-[4-(7H-pyrrolo[2,3-d]pyrimidin-4-yl)-1H-pyrazol-1-yl]azetidin-3-yl}acetonitrile] is higher in “IC50 Ratio JAK2/JAK1” value: 0.5 for the first, 5.6 for the second.

Going from `N#CCC1(n2cc(-c3ncnc4[nH]ccc34)cn2)CN(C2CCN(S(=O)(=O)C3CCCC3)CC2)C1` [Example 253, {1-[1-(cyclopentylsulfonyl)piperidin-4-yl]-3-[4-(7H-pyrrolo[2,3-d]pyrimidin-4-yl)-1H-pyrazol-1-yl]azetidin-3-yl}acetonitrile] to `Cn1ccc(S(=O)(=O)N2CCC(N3CC(CC#N)(n4cc(-c5ncnc6[nH]ccc56)cn4)C3)CC2)n1` [Example 251, {1-{1-[(1-methyl-1H-pyrazol-3-yl)sulfonyl]piperidin-4-yl}-3-[4-(7H-pyrrolo[2,3-d]pyrimidin-4-yl)-1H-pyrazol-1-yl]azetidin-3-yl}acetonitrile], the “IC50 Ratio JAK2/JAK1” value falls from 5.8 to 4.9.

First: N#CCC1(n2cc(-c3ncnc4[nH]ccc34)cn2)CN(C2CCN(C(=O)c3cc(Cl)cc(C(F)(F)F)n3)CC2)C1 [Example 53, {1-(1-{[4-chloro-6-(trifluoromethyl)pyridin-2-yl]carbonyl}piperidin-4-yl)-3-[4-(7H-pyrrolo[2,3-d]pyrimidin-4-yl)-1H-pyrazol-1-yl]azetidin-3-yl}acetonitrile]
Second: N#CCC1(n2cc(-c3ncnc4[nH]ccc34)cn2)CN(C2CCN(C(=O)C3CCC(c4ccc(Cl)cc4)CC3)CC2)C1 (centres unmarked) [Example 105, {1-(1-{[4-(4-chlorophenyl)cyclohexyl]carbonyl}piperidin-4-yl)-3-[4-(7H-pyrrolo[2,3-d]pyrimidin-4-yl)-1H-pyrazol-1-yl]azetidin-3-yl}acetonitrile]
The “IC50 Ratio JAK2/JAK1” value of the first is higher: 9.4 for the first, 7.2 for the second.
